Values after ≈ are worked out from the molar mass of the structure shown. Square brackets hold non-standard residues; d marks the D form. Peptide text beside a SMILES is read from it. * marks the point of attachment. X2 = OC[C@H](Cc1c[nH]c2ccccc12)N*; Phe(ol) = N[C@H](CO)Cc1ccccc1; Aib = CC(C)(N)C(=O)O
Experiments:
[1] = system: Acholeplasma laidlawii; test: Antimicrobial activity against Acholeplasma laidlawii PG-8A after 2 hrs; type: functional; settings: for MIC: Acholeplasma laidlawii, PG-8A, 2 h
[2] = system: Mycoplasma mycoides subsp. mycoides SC; test: Antimicrobial activity against Mycoplasma mycoides subsp. mycoides SC KH3J after 2 hrs; type: functional
[3] = system: Mycoplasmoides gallisepticum; test: Antimicrobial activity against Mycoplasma gallisepticum S6 after 2 hrs; type: functional; settings: for MIC: Mycoplasmoides gallisepticum, S6, 2 h
[4] = system: Spiroplasma floricola; test: Antimicrobial activity against Spiroplasma floricola BNR1 after 2 hrs; type: functional; settings: for MIC: Spiroplasma floricola, BNR1, 2 h
[5] = system: Spiroplasma citri; test: Antimicrobial activity against Spiroplasma citri R8A2 after 2 hrs; type: functional; settings: R8A2, 2 h
[6] = system: Spiroplasma apis; test: Antimicrobial activity against Spiroplasma apis B31 after 2 hrs; type: functional; settings: for MIC: Spiroplasma apis, B31, 2 h
[7] = Bilayer membrane permeabilization assessed as lipid to peptide ratio allowing 50% leakage of entrapped carboxyfluorescein from egg phosphatidylcholine-cholesterol liposomes at 0.40 uM at 20 mins by spectrofluorimetry; type: physicochemical; settings: 0.4 µM
[8] = Bilayer membrane permeabilization assessed as lipid to peptide ratio allowing 50% leakage of entrapped carboxyfluorescein from egg phosphatidylcholine-cholesterol liposomes at 1.1 uM at 20 mins by spectrofluorimetry; type: physicochemical
[9] = Bilayer membrane permeabilization assessed as lipid to peptide ratio allowing 50% leakage of entrapped carboxyfluorescein from egg phosphatidylcholine-cholesterol liposomes at 0.49 uM at 20 mins by spectrofluorimetry; type: physicochemical
[10] = Bilayer membrane permeabilization assessed as lipid to peptide ratio allowing 50% leakage of entrapped carboxyfluorescein from egg phosphatidylcholine-cholesterol liposomes at 1.36 uM at 20 mins by spectrofluorimetry; type: physicochemical

Structure (SMILES)	MLC [1]	MIC [1]	MIC [2]	MLC [3]	MIC [3]	MLC [4]	MIC [4]	MIC [5]	MLC [6]	MIC [6]	Ratio [7]	Ratio [8]	Ratio [9]	Ratio [10]
CC(=O)NC(C)(C)C(=O)N[C@@H](C)C(=O)NC(C)(C)C(=O)N[C@@H](C)C(=O)NC(C)(C)C(=O)N[C@@H](C)C(=O)N[C@@H](CCC(N)=O)C(=O)NC(C)(C)C(=O)N[C@H](C(=O)NC(C)(C)C(=O)NCC(=O)N[C@@H](CC(C)C)C(=O)NC(C)(C)C(=O)N1CCC[C@H]1C(=O)N[C@H](C(=O)NC(C)(C)C(=O)NC(C)(C)C(=O)N[C@@H](CCC(=O)O)C(=O)N[C@@H](CCC(N)=O)C(=O)N[C@H](CO)Cc1ccccc1)C(C)C)C(C)C (Ac-[Aib]A[Aib]A[Aib]AQ[Aib]V[Aib]GL[Aib]PV[Aib][Aib]EQ[Phe(ol)])	3.12 µM (≈ 6.05 µg/mL)	1.56 µM (≈ 3.02 µg/mL)	12.5 µM (≈ 24.2 µg/mL)	3.12 µM (≈ 6.05 µg/mL)	6.25 µM (≈ 12.1 µg/mL)	3.12 µM (≈ 6.05 µg/mL)	12.5 µM (≈ 24.2 µg/mL)	6.25 µM (≈ 12.1 µg/mL)	3.12 µM (≈ 6.05 µg/mL)	12.5 µM (≈ 24.2 µg/mL)	–	–	–	–
CC[C@@](C)(NC(=O)C(C)(C)NC(=O)[C@@H](NC(=O)[C@@H]1CCCN1C(=O)C(C)(C)NC(=O)C(C)(C)NC(=O)CNC(=O)C(C)(C)NC(=O)C(C)(C)NC(=O)[C@H](CC(C)C)NC(=O)C(C)(C)NC(=O)[C@H](CCC(N)=O)NC(=O)C(C)(C)NC(=O)[C@H](C)NC(=O)C(C)(C)NC(=O)[C@H](C)NC(=O)C(C)(C)NC(C)=O)C(C)C)C(=O)N[C@@H](CCC(N)=O)C(=O)N[C@@H](CCC(N)=O)C(=O)N[C@H](CO)Cc1ccccc1	–	–	–	–	–	–	–	–	–	–	1000	–	–	–
CC[C@@](C)(NC(=O)C(C)(C)NC(=O)[C@H](C)NC(=O)[C@H](CO)NC(=O)C(C)(C)NC(C)=O)C(=O)N[C@@H](CCC(N)=O)C(=O)NC(C)(C)C(=O)N[C@H](C(=O)NC(C)(C)C(=O)NCC(=O)N[C@@H](CC(C)C)C(=O)NC(C)(C)C(=O)N1CCC[C@H]1C(=O)N[C@@H](CC(C)C)C(=O)NC(C)(C)C(=O)NC(C)(C)C(=O)N[C@@H](CCC(N)=O)C(=O)N[C@H](CO)Cc1ccccc1)C(C)C [listing 1 of 2 here]	–	3.12 µM (≈ 5.56 µg/mL)	12.5 µM (≈ 22.3 µg/mL)	–	6.25 µM (≈ 11.1 µg/mL)	–	25 µM (≈ 44.6 µg/mL)	12.5 µM (≈ 22.3 µg/mL)	–	12.5 µM (≈ 22.3 µg/mL)	–	–	–	–
CC[C@@](C)(NC(=O)C(C)(C)NC(=O)[C@@H](NC(=O)[C@@H]1CCCN1C(=O)C(C)(C)NC(=O)[C@H](CC(C)C)NC(=O)CNC(=O)C(C)(C)NC(=O)[C@@H](NC(=O)C(C)(C)NC(=O)[C@H](CCC(N)=O)NC(=O)[C@H](C)NC(=O)C(C)(C)NC(=O)[C@H](C)NC(=O)C(C)(C)NC(=O)[C@H](C)NC(=O)C(C)(C)NC(C)=O)C(C)C)C(C)C)C(=O)N[C@@H](CCC(=O)O)C(=O)N[C@@H](CCC(N)=O)C(=O)N[C@H](CO)Cc1ccccc1	3.12 µM (≈ 6.09 µg/mL)	1.56 µM (≈ 3.05 µg/mL)	6.25 µM (≈ 12.2 µg/mL)	3.12 µM (≈ 6.09 µg/mL)	6.25 µM (≈ 12.2 µg/mL)	3.12 µM (≈ 6.09 µg/mL)	12.5 µM (≈ 24.4 µg/mL)	6.25 µM (≈ 12.2 µg/mL)	3.12 µM (≈ 6.09 µg/mL)	12.5 µM (≈ 24.4 µg/mL)	–	540	–	–
CC[C@@](C)(NC(=O)C(C)(C)NC(=O)[C@H](C)NC(=O)[C@H](CO)NC(=O)C(C)(C)NC(C)=O)C(=O)N[C@@H](CCC(N)=O)C(=O)NC(C)(C)C(=O)N[C@H](C(=O)NC(C)(C)C(=O)NCC(=O)N[C@@H](CC(C)C)C(=O)NC(C)(C)C(=O)N1CCC[C@H]1C(=O)N[C@@H](CC(C)C)C(=O)NC(C)(C)C(=O)NC(C)(C)C(=O)N[C@@H](CCC(N)=O)C(=O)N[C@H](CO)Cc1ccccc1)C(C)C [listing 2 of 2 here]	–	–	–	–	–	–	–	–	–	–	–	–	1220	–
CC(=O)NC(C)(C)C(=O)N1CCC[C@H]1C(=O)NC(C)(C)C(=O)N[C@@H](C)C(=O)NC(C)(C)C(=O)N[C@@H](C)C(=O)N[C@@H](CCC(N)=O)C(=O)NC(C)(C)C(=O)N[C@H](C(=O)NC(C)(C)C(=O)NCC(=O)N[C@@H](CC(C)C)C(=O)NC(C)(C)C(=O)N1CCC[C@H]1C(=O)N[C@H](C(=O)NC(C)(C)C(=O)NC(C)(C)C(=O)N[C@@H](CCC(N)=O)C(=O)N[C@@H](CCC(N)=O)C(=O)N[C@H](CO)Cc1ccccc1)C(C)C)C(C)C [ALAMETHICIN F50] (Ac-[Aib]P[Aib]A[Aib]AQ[Aib]V[Aib]GL[Aib]PV[Aib][Aib]QQ[Phe(ol)])	–	1.56 µM (≈ 3.06 µg/mL)	12.5 µM (≈ 24.5 µg/mL)	–	6.25 µM (≈ 12.3 µg/mL)	–	6.25 µM (≈ 12.3 µg/mL)	3.12 µM (≈ 6.13 µg/mL)	–	6.25 µM (≈ 12.3 µg/mL)	–	–	–	–
CC[C@H](C)[C@H](NC(=O)C(C)(C)NC(=O)[C@@H](NC(=O)[C@@H]1CCCN1C(=O)C(C)(C)NC(=O)[C@H](CC(C)C)NC(=O)[C@H](CO)NC(=O)C(C)(C)NC(=O)C(C)(C)NC(=O)C(C)(C)NC(=O)[C@H](CCC(N)=O)NC(=O)C(C)(C)NC(=O)C(C)(C)NC(=O)[C@H](C)NC(=O)[C@H](C)NC(=O)C(C)(C)NC(C)=O)C(C)C)C(=O)N[C@@H](CCC(N)=O)C(=O)N[C@@H](CCC(=O)O)C(=O)N[C@H](CO)Cc1c[nH]c2ccccc12 (Ac-[Aib]AA[Aib][Aib]Q[Aib][Aib][Aib]SL[Aib]PV[Aib]IQE-X2)	–	–	–	–	–	–	–	–	–	–	–	–	–	295

Reference: ChEMBL document CHEMBL1155703, “Sequences and antimycoplasmic properties of longibrachins LGB II and LGB III, two novel 20-residue peptaibols from Trichoderma longibrachiatum” (J Nat Prod, 2001)
